Data as given in patent US7371776B2, “Methods and compositions for treating cancer” (Mars, Incorporated, priority 2004, dated 2008).

What was measured:
Format in all cases: cell-based, human
PARP = PARP cleavage in MDA MB-231 cells; settings: 48 hours treatment
Description: Rabbit polyclonal poly (ADP-ribose) polymerase (PARP) (H-250) was obtained from Santa Cruz Biotechnology Inc., (Santa Cruz, Calif.). α-Tubulin antibody was obtained from Neomarkers, Fremont, Calif. All antibodies used for proteomics analysis were obtained from Cell Signaling (Beverly, Mass.), Upstate Biotechnology (Lake Placid, N.Y.), Neomarkers (Fremont, Calif.) and Santa Cruz (Santa Cruz, Calif.) (Table 2). Referring to Table 2, Abs designated as “mouse” were monoclonal Abs, and Abs designated as “rabbit” were polyclonal Abs. The ECL detection reagent was obtained from Amersham (Arlington Heights, Ill.).
To determine whether depolarization of the mitochondrial membrane, induced by pentamer leads to apoptotic cellular death in human breast cancer cells lines, MDA MB-231 and MCF-7 cells were examined for PARP cleavage products. Since PARP is one of the downstream substrates of the caspase cascade, it is an excellent marker of apoptosis [Soldani, C. et al., Apoptosis, 7: 321-328, 2002].

PKC-θ = assay: Confirmation of LPS results by immunoblotting, MDA MB-231 cells; settings: PVDF membranes
Method: (§1) The proteins affected by pentamer, as detected by LPS, were analyzed further by immunoblotting. Antibodies against the following proteins were used: Cdc2 (Tyr15), FKHR (Ser256), p53 (Ser37, Ser46 and Ser392), PKC-δ (Ser643), PKC-θ (Ser643/676), pRb (Ser795 and Ser807/811), SAPK/JNK (Thr183/Tyr185) and Stat 5 (Tyr694) (all antibodies were obtained from Cell Signaling).
(§2) Protein pellets from pentamer-treated MDA MB-231, MDA MB-468 and MCF-7 cells and corresponding DMSO-treated controls were lysed in PBS with 1% SDS and sonicated for 15 seconds at a power of five watts. Samples were then centrifuged at 10,000 rpm and supernatants transferred into clean tubes. Protein concentration was determined as descried above. Ten jig of each protein sample was separated by PAGE on 4-20% gradient gels (BioRad, Philadelphia, Pa.). Gels were either transferred to PVDF membranes (BioRad) or P-FILM membrane (stacks of 10 membranes) according to the manufacturer's instructions (20/20 Gene Systems). PVDF membranes were blocked for 1 hour in 0.5% casein solution (Vector Laboratories, Burlingame, Calif.), prior to incubation with primary antibodies. […] The membranes were incubated overnight at 4° C. in 1:500 dilutions of primary antibodies, washed three times in TBST for five minutes, incubated in HRP-conjugated secondary antibodies, washed again and incubated in ECL Plus Reagent (Amersham). Signals were visualized on BIOMAX MR film (Kodak, Rochester, N.Y.). Following incubation with primary antibodies, membranes were incubated in anti-GAPDH antibody (1:500 dilution; Chemicon, Temecula, Calif.). The presence of this protein was visualized with secondary antibody conjugated to alkaline phosphatase DuoLux substrate (Vector Laboratories).

PKC-δ = assay: as above; settings: PVDF membranes
Method: as §1, §2

Stat5 = assay: as above; settings: PVDF membranes
Method: as §1, §2

SAPK/JNK = assay: as above; settings: PVDF membranes
Method: as §1, §2

p53 = assay: High resolution profiling (P-FILM) of p53 in MDA MB-231 cells; settings: 100 μg/mL
Method: Both p53 and pRb contain multiple phosphorylation sites, and evaluating each site separately provides a more accurate indication of each protein's potential function. Therefore, a high resolution functional profiling of the proteins was performed using P-FILM technology (20/20 Gene Systems, Inc.).
The same protein samples as those used for PDVF membrane blotting were used. Ten μg of each protein sample of MDA MB-231 cells, and in some cases MDA MB-468 and MCF-7 cells, treated with 100 μg /mL of pentamer or DMSO-treated controls, were separated by PAGE on 4-20% gradient gels (BioRad). Proteins were transferred on a stack of ten membranes, according to manufacturer's instructions (20/20 Gene Systems, Inc.). The membranes were probed with antibodies recognizing total and phosphorylated p53 (p53Ser6, Ser9, Ser15, Ser20, Ser37, Ser46 and Ser392) at 1:1000 dilution as recommended by the manufacturer (Cell Signaling). The secondary antibody used in all cases was anti-rabbit polyclonal 1:2000 (Amersham). Signals were visualized on BIOMAX MR film (Kodak). The profiling of pRb was done using anti-phospho pRb (Ser780, Ser 795 and Ser 807/811) and anti-pRb polyclonal antibody (Cell Signaling) at a 1:1000 dilution. The secondary antibody used in all cases was anti-rabbit at 1:2000 dilution (Amersham). Image analysis was performed with Kodak 1D image analysis software. Background corrected intensity values were normalized for loading by using GAPDH intensities. Numerical analysis was performed in Excel.

Oc1cc(O)c2c(c1)O[C@H](c1ccc(O)c(O)c1)[C@H](O)[C@H]2c1c(O)cc(O)c2c1O[C@H](c1ccc(O)c(O)c1)[C@H](O)[C@H]2c1c(O)cc(O)c2c1O[C@H](c1ccc(O)c(O)c1)[C@H](O)[C@H]2c1c(O)cc(O)c2c1O[C@H](c1ccc(O)c(O)c1)[C@H](O)[C@H]2c1c(O)cc(O)c2c1O[C@H](c1ccc(O)c(O)c1)[C@H](O)C2 [pentamer, pentameric procyanidin]
main band of PARP (cleavage) (PARP): uncleaved | confirmation of LPS result on PKC-θ by immunoblotting (PKC-θ): not confirmed | confirmation of LPS result on PKC-δ by immunoblotting (PKC-δ): not confirmed | confirmation of LPS result on Stat5 by immunoblotting (Stat5): not confirmed | confirmation of LPS result on SAPK/JNK by immunoblotting (SAPK/JNK): not confirmed | percentage of p53 phosphorylated at Ser392 decreased, compared to untreated controls (p53): 53% | phosphorylation of p53 Ser15 residue (p53; 48 h): slight decreases | phosphorylation of p53 Ser46 (p53; 48 h): slight decreases | phosphorylation of p53 Ser20 residue (p53; 48 hrs): decreased | levels of endogenous p53 expression (p53; 48 hrs, not significant by densitometry): slightly decreased | phosphorylation of p53 Ser20 residue (p53; 72 hrs): not affected | phosphorylation of p53 Ser392 residue (p53; both 48 and 72 hrs): significant dephosphorylation
